US12441710B2, “Substituted piperidino compounds and related methods of treatment” (Alkermes, Inc., priority 2020, dated 2025)

Tests used:
[1] = target: T1, human orexin-2 receptor (OX2R) (Homo sapiens, UniProt O43614); experiment: Human OX2R IP1 assay; format: cell-based; settings: T-Rex CHO cells stably overexpressing human OX2R; IP1 accumulation, 1 hr at 37 degrees C
T1 construct: expressed in transfected cells
T1 sequence (O43614 1-444): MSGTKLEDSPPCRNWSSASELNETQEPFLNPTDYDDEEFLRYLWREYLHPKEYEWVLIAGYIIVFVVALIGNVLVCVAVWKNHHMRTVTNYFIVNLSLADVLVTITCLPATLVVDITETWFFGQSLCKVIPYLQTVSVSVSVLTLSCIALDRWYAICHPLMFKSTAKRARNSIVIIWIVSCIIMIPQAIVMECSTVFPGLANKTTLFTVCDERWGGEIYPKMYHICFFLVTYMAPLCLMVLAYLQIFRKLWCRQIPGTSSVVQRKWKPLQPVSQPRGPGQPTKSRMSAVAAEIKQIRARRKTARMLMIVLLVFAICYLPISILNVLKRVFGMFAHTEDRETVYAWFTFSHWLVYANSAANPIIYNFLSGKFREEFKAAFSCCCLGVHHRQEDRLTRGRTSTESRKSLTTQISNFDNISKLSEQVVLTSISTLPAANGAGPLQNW
Experimental: T-Rex CHO cells stably overexpressing the human orexin-2 receptor (OX2R) were induced overnight with 1 μg/mL of doxycycline in a T225 flask. 24 hours post induction, cells were lifted with accutase and plated into a 384-well proxy plate at 30,000 cells/well. Cells were then treated with different test compounds in 1× stimulation buffer containing 10 mM Hepes, 1 mM CaCl2), 0.5 mM MgCl2, 4.2 mM KCl, 146 mM NaCl, 5.5 mM glucose, and 50 mM LiCl, pH 7.4, for 1 hr at 37 degrees C. Following incubation, the reaction was terminated by the addition of detection mix, which is composed of IP1-d2 and anti-IP1-cryptate diluted in lysis buffer as well as 1× stimulation buffer. The plates were allowed to incubate for 1 hour at room temperature and were then read in the EnVision® multimode plate reader, measuring inositol phosphate levels.
Cisbio IP1 is a cell-based functional assay quantifying the accumulation of inositol monophosphate (IP), a metabolite released as a result of orexin 2 receptor activation through the phospholipase C-Gq signaling pathway. This is a competitive immunoassay in which the IP1 produced by the cells upon receptor activation competes with the IP1 analog coupled to the d2 fluorophore (acceptor) for binding to an anti-IP1 monoclonal antibody labeled with Eu cryptate (donor). The measured HTRF-FRET based signal is inversely proportional to the IP1 concentration produced.
The EC50 values reported in Table 2 were obtained according to the human OX2R IP1 assay described above. Data are the mean EC50 values±S.E.M. The compound methyl (2R,3S)-3-((methylsulfonyl)amino)-2-(((cis-4-phenylcyclohexyl)oxy)methyl)-piperidine-1-carboxylate (sometimes referred to herein as Reference Compound A) is a reference compound which is disclosed in Example 5 of PCT publication no. WO2017/135306.

MDR1 = experiment: MDCK-MDR1 permeability assay; format: in vitro ADME; settings: dog, 3 μM test compound; for efflux ratio at 2 h, 3 μM: Papp (B→A) divided by Papp (A→B), read-out: Efflux ratio (ER); for Papp A→B at 2 h, 3 μM: apical to basolateral, 2 hours at 37 degrees C
Experimental: The bidirectional permeability (Apical to Basal and Basal to Apical directions) of test compounds in MDCK-MDR1 cells were evaluated using MDCK-MDR1 cells seeded in Solvo PreadyPort™ MDCK 96-well plate. Once the plate was received from ReadyCell (Barcelona, Spain), it was treated as per PreadyPort™ user's manual.
For the Apical to Basolateral (A→B) permeability, 80 μL of test compound (3 μM) co-dosed with LY (Lucifer Yellow) (100 μM) in HBSS (Hank's Balanced Salt Solution) assay buffer was added to the donor side (A) while 250 μL of HBSS buffer was added to the receiver side (B). For the Basolateral to Apical (B→A) permeability, 255 μL of test compound (3 μM) in HBSS assay buffer was added to the donor side (B) while 75 μL of HBSS buffer containing LY (100 μM) was added to the receiver side (A).
The plate was placed in an incubator set at 37 degrees C. After 10 minutes of pre-warming, 5 μL aliquot was taken from donor compartment and set aside as the dosing solution. The MDCK-MDR1 incubation plate was placed back into the incubator for 2 hours of incubation at 37 degrees C. After 2 hours of incubation, 25 μL and 5 μL aliquots were removed from the receiver and donor sides, respectively. To the 5 μL aliquots taken from the donor sides (before and after a 2-hour incubation) were diluted with 20 μL of the HBSS buffer. All samples were mixed with 150 μL with acetonitrile containing internal standard (IS) and 200 μL water, and analyzed by LC-MS/MS.
The apparent permeability (Papp) was calculated using the following formula: Papp=dQ/dt×1/A×C0 where: • dQ/dt: amount of translocated material over incubation time (nmol/s) • A: area of insert (0.14 cm^2 for PreadyPort™ MDR1-96) • C0: initial concentration of product applied in apical (A→B) or basal (B→A) compartment (nmol/mL).
The efflux ratio (ER) was measured by dividing the Papp (basolateral to apical direction) by Papp (apical to basolateral direction). It is a general measure of the involvement of active processes. An ER >2 is considered positive for active transport.
The data reported in Table 3 were obtained according to the MDCK-MDR1 permeability assay described above.

[2] = Hepatocytes stability assay (human hepatocytes); format: in vitro ADME; settings: both sexes, cryopreserved hepatocytes, 1 μM test compound, 1×10^6 cell/mL, read-out: CLint (μL/min/million cells)
In short: (§1)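 Pooled cryopreserved human hepatocytes (50 donors, mixed gender), 1×10^6 cells/mL in KHB, with 1 μM compound (0.1% DMSO) at 37 degrees C, sampled 0–240 min. Parent depletion by LC-MS/MS; first-order fit gave T1/2 and CLint, scaled to hepatic clearance by well-stirred model with fu assumed 1, plus extraction ratio.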

human hepatocytes = experiment: Hepatocytes stability assay (human hepatocytes); format: in vitro ADME; settings: hepatic clearance divided by liver blood flow, fu assumed unity
In short: as §1

Sprague-Dawley rats = experiment: Assessment of wake promotion in Sprague-Dawley rats (EEG/EMG); format: in vivo, rat; settings: 3 mpk, male Sprague-Dawley rats, 6-hour post-dose period
Experimental: Wake promotion was assessed using electroencephalography (EEG) and electromyography (EMG) in adult male Sprague-Dawley rats. All rats (Charles River Laboratories, Raleigh, NC, USA) were intraperitoneally implanted with telemetry devices (F50-EEE, Data Sciences International Inc., MN, USA) under isoflurane anesthesia. For EEG, stainless steel screws were implanted over frontal cortex and parietal cortex, and reference screws were placed over cerebellum. Additionally, an electrode was placed in neck muscle for EMG. Rats were given carprofen post-surgery and underwent a 7 to 10-day recovery period. Rats habituated to the experimental room for 7 days and were maintained on a 12-hour light-dark cycle.
EEG and EMG data were recorded using the DSI telemetry system and Ponemah software (Data Sciences International Inc., MN, USA). Sleep-wake stages were scored both manually and with Somnivore, a supervised machine learning software platform, in 10 second epochs. Records were visually inspected as needed post-processing.
All test compounds were dissolved in 5% DMSO and suspended in 95% saline with 0.5% methylcellulose and 0.5% tween. […] Unless otherwise indicated, all compounds were dosed orally. Recordings for each rat were initiated immediately after dosing and lasted for 6 hours post-dose.
Two key endpoints include wakefulness time and cortical activation time. […]

Compound	EC50 [1] [nM]	efflux ratio at 2 h, 3 μM (MDR1)	Papp A→B at 2 h, 3 μM (MDR1) [×10⁻⁶ cm/s]	hepatocyte CLint at 1 μM [2] [µL/min/1e6 cells]	Extraction Ratio (ER) (human hepatocytes)	Mean cortical activation time (% vehicle treatment) (Sprague-Dawley rats; PO)	Mean cortical activation time (% vehicle treatment) (Sprague-Dawley rats; SC)
CS(=O)(=O)N[C@H]1CCN(c2ccccn2)CC1COC1CCN(c2ncccn2)CC1 (stereo partly shown) [Compound 1]	> 1000	12	2.7	31	0.82	–	–
CS(=O)(=O)N[C@H]1CCN(c2ccccn2)C[C@H]1CO[C@H]1CC[C@@H](c2cccc(F)c2)CC1 [Compound 6]	< 100	2.8	1.3	44	0.87	–	–
C[C@@H](c1ccccc1)N1CC[C@H](NS(C)(=O)=O)C(COC2CCC(c3ccccc3)CC2)C1 (stereo partly shown) [Compound 37]	> 1000	12	0.38	99	0.94	–	–
C[C@H](c1ccccc1)N1CC[C@H](NS(C)(=O)=O)C(COC2CCC(c3ccccc3)CC2)C1 (stereo partly shown) [Compound 38]	> 1000	3.2	0.74	91	0.93	–	–
O=S(=O)(N[C@H]1CCN(c2ccccn2)C[C@H]1CO[C@H]1CC[C@@H](c2ccccc2)CC1)C(F)(F)F [Compound 53]	< 100	–	–	–	–	105.00	–
COC(=O)N1CCC[C@H](NS(C)(=O)=O)[C@@H]1CO[C@H]1CC[C@@H](c2ccccc2)CC1 [Reference Compound A, methyl (2R,3S)-3-((methylsulfonyl)amino)-2-(((cis-4-phenylcyclohexyl)oxy)methyl)-piperidine-1-carboxylate, reference compound]	< 100	–	–	–	0.92	–	118.75
